ChEMBL document CHEMBL4339232, “Exploiting Chemical Toolboxes for the Expedited Generation of Tetracyclic Quinolines as a Novel Class of PXR Agonists” (ACS Med Chem Lett, 2019)
pEC50: −log10 of the molar value.

Key:
[1] = target: T1, Nuclear receptor subfamily 1 group I member 2 (Homo sapiens, UniProt O75469); test: Agonist activity at PXR (unknown origin) by AlphaScreen assay
T1 sequence (O75469 whole entry): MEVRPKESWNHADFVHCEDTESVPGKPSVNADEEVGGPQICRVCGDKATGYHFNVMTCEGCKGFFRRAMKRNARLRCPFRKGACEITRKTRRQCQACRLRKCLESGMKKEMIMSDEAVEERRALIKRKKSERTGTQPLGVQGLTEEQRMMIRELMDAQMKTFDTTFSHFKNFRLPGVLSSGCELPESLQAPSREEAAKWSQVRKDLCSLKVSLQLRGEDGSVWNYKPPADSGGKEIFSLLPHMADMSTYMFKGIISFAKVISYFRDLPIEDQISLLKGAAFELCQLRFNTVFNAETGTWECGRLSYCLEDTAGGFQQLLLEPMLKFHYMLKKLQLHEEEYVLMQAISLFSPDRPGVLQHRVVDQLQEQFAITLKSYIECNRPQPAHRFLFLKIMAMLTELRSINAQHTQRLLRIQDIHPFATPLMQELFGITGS

[2] = target: T2, PXR (Nuclear receptor subfamily 1 group I member 2) (Homo sapiens, UniProt O75469); test: Agonist activity at PXR (unknown origin) assessed as maximum receptor activation response at 20 uM by AlphaScreen assay relative to T0901317; settings: read-out: Efficacy
T2 sequence (O75469 whole entry): T1 sequence (O75469 whole entry)

[3] = target: T2, PXR (Nuclear receptor subfamily 1 group I member 2); test: Agonist activity at PXR (unknown origin) at 20 uM by AlphaScreen assay relative to T0901317; settings: read-out: Activity

| SMILES | pEC50 [1] | Emax at 20 µM [2] [%] | activity at 20 µM [3] [%] |
| --- | --- | --- | --- |
| CC(C)(C)OC(=O)N1CC[C@H]2[C@@H](c3ccsc3)Nc3c(ccc4c3CCCC4)[C@H]21 | 5.49 | 60 | 50 to 75 |
| CC(C)(C)OC(=O)N1CC[C@@H]2[C@H]1c1ccc3c(c1N[C@H]2c1ccsc1)CCCC3 | 5.80 to 5.92 | 82 to 119 | 75 to 100 |
| c1coc([C@H]2Nc3c(ccc4c3CCCC4)[C@@H]3OCCC[C@H]23)c1 (racemic) |  |  | < 25 |
| c1cc([C@@H]2Nc3c(ccc4c3CCCC4)[C@@H]3NCC[C@H]23)cs1 (racemic) |  |  | < 25 |
| CC(C)(C)OC(=O)N1CC[C@@H]2[C@H](c3ccccc3)Nc3c(ccc4c3CCCC4)[C@@H]21 (racemic) |  |  | 50 to 75 |
| CC(C)(C)OC(=O)N1CCC[C@@H]2[C@@H](c3ccsc3)Nc3c(ccc4c3CCCC4)[C@@H]21 (racemic) |  |  | < 25 |
| c1csc([C@H]2Nc3c(ccc4c3CCCC4)[C@@H]3OCC[C@H]23)c1 (racemic) |  |  | < 25 |
| CC(C)(C)OC(=O)N1CC[C@@H]2[C@H](c3ccco3)Nc3c(ccc4c3CCCC4)[C@@H]21 (racemic) | 5.82 | 53 | 75 to 100 |
| c1cc([C@@H]2Nc3c(ccc4c3CCCC4)[C@@H]3NCCC[C@H]23)cs1 (racemic) |  |  | < 25 |
| CC(C)(C)OC(=O)N1CCC[C@@H]2[C@H](c3ccsc3)Nc3c(ccc4c3CCCC4)[C@@H]21 (racemic) |  |  | 50 to 75 |
| c1coc([C@@H]2Nc3c(ccc4c3CCCC4)[C@@H]3OCCC[C@H]23)c1 (racemic) |  |  | 50 to 75 |
| CC(C)(C)OC(=O)N1CC[C@@H]2[C@@H](c3ccccc3)Nc3c(ccc4c3CCCC4)[C@@H]21 (racemic) |  |  | < 25 |
| c1ccc([C@@H]2Nc3c(ccc4c3CCCC4)[C@@H]3OCCC[C@H]23)cc1 (racemic) |  |  | < 25 |
| c1coc([C@@H]2Nc3c(ccc4c3CCCC4)[C@@H]3NCC[C@H]23)c1 (racemic) |  |  | < 25 |
| CC(C)(C)OC(=O)N1CCC[C@@H]2[C@H](c3ccccc3)Nc3c(ccc4c3CCCC4)[C@@H]21 (racemic) |  |  | < 25 |
| c1cc([C@H]2Nc3c(ccc4c3CCCC4)[C@@H]3OCC[C@H]23)cs1 (racemic) |  |  | 25 to 50 |

| SMILES | pEC50 [1] | Emax at 20 µM [2] [%] | activity at 20 µM [3] [%] |
| --- | --- | --- | --- |
| c1ccc([C@@H]2Nc3c(ccc4c3CCCC4)[C@@H]3OCC[C@H]23)cc1 (racemic) |  |  | 25 to 50 |
| c1ccc([C@H]2Nc3c(ccc4c3CCCC4)[C@@H]3OCC[C@H]23)cc1 (racemic) |  |  | < 25 |
| CC(C)(C)OC(=O)N1CC[C@@H]2[C@@H](c3ccsc3)Nc3c(ccc4c3CCCC4)[C@@H]21 (racemic) | 5.43 | 15 |  |
| c1coc([C@H]2Nc3c(ccc4c3CCCC4)[C@@H]3OCC[C@H]23)c1 (racemic) |  |  | < 25 |
| c1csc([C@@H]2Nc3c(ccc4c3CCCC4)[C@@H]3OCC[C@H]23)c1 (racemic) |  |  | 50 to 75 |
| CC(C)(C)OC(=O)N1CC[C@@H]2[C@H](c3ccsc3)Nc3c(ccc4c3CCCC4)[C@@H]21 (racemic) | 5.08 | 28 |  |
| c1coc([C@@H]2Nc3c(ccc4c3CCCC4)[C@@H]3OCC[C@H]23)c1 (racemic) |  |  | 50 to 75 |
| CC(C)(C)OC(=O)N1CCC[C@@H]2[C@@H](c3ccccc3)Nc3c(ccc4c3CCCC4)[C@@H]21 (racemic) |  |  | < 25 |
| CC(C)(C)OC(=O)N1CCC[C@@H]2[C@@H](c3ccco3)Nc3c(ccc4c3CCCC4)[C@@H]21 (racemic) |  |  | 25 to 50 |
| c1cc([C@@H]2Nc3c(ccc4c3CCCC4)[C@@H]3OCC[C@H]23)cs1 (racemic) | 5.46 | 42 | 75 to 100 |
| c1coc([C@@H]2Nc3c(ccc4c3CCCC4)[C@@H]3NCCC[C@H]23)c1 (racemic) |  |  | < 25 |
| CC(C)(C)OC(=O)N1CCC[C@@H]2[C@H](c3ccco3)Nc3c(ccc4c3CCCC4)[C@@H]21 (racemic) |  |  | 25 to 50 |
| CC(C)(C)OC(=O)N1CC[C@@H]2[C@@H](c3ccco3)Nc3c(ccc4c3CCCC4)[C@@H]21 (racemic) |  |  | 25 to 50 |
| c1ccc([C@H]2Nc3c(ccc4c3CCCC4)[C@@H]3OCCC[C@H]23)cc1 (racemic) |  |  | < 25 |
| c1ccc([C@@H]2Nc3c(ccc4c3CCCC4)[C@@H]3NCC[C@H]23)cc1 (racemic) |  |  | < 25 |
